Source: patent publication US9499493B2, “2,4-pyrimidinediamine compounds and their uses” (Rigel Pharmaceuticals, Inc., priority 2002, dated 2016)
Values belong to the molecule of their own block, whether it stands above or below them.

Columns and labels:
[1] = system: FcγRI-mediated degranulation; experiment: FcγRI receptor-mediated degranulation (activation with anti-human IgG Fab fragment); format: cell-based; details: cells not primed with IgE, activated with rabbit anti-human IgG Fab fragment
[2] = system: cultured human mast cells (CHMC); experiment: CHMC low cell density IgE activation: tryptase assay; format: cell-based; details: anti-IgE
How it was run: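 Cultured human mast cells (1000-1500 cells/well, donor-dependent) equilibrated 1 hr at 37° C, then stimulated with anti-IgE for 30 min at 37° C. Tryptase released into the supernatant is measured with a fluorogenic tryptase substrate after 30 min at room temperature.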

[3] = system: cultured human mast cells (CHMC); experiment: CHMC low cell density ionomycin activation: tryptase assay; format: cell-based
[4] = system: bone marrow derived mast cells (BMMC); experiment: BMMC high cell density IgE activation: histamine; format: cell-based, mouse; details: anti-IgE, second part of TABLE 1
Experimental: (§1) Inhibition of degranulation was measured at both low and high cell density by quantifying the release of the granule specific factors tryptase, histamine and hexosaminidase. Inhibition of release and/or synthesis of lipid mediators was assessed by measuring the release of leukotriene LTC4 and inhibition of release and/or synthesis of cytokines was monitored by quantifying TNF-α, IL-6 and IL-13. Tryptase and hexosaminidase were quantified using fluorogenic substrates as described in their respective examples. […] The protocols of the various assays are provided below.
(§2) After sensitizing, cells are counted, pelleted (1000 rpm, 5-10 minutes), and resuspended at 1-3×10^6 cells/ml in MT buffer. Add 100 ul of cell suspension to each well and 100 ul of compound dilutions. The final vehicle concentration is 0.5% DMSO. Incubate at 37° C. (5% CO2) for 1 hour. After 1 hour of compound treatment, stimulate cells with 6× stimulus (60 ng/ml DNP-BSA). Mix wells with the cells and allow plates to incubate at 37° C. (5% CO2) for one hour. After 1 hour incubation, pellet cells (10 minutes, 1000 RPM) and collect 200 ul per well of the supernatant, being careful not to disturb pellet, and transfer to a clean tube or 96-well plate. Place the supernatant plate on ice. During the 4-5 hour step (see next) perform the hexosiminidase assay. Resuspend cell pellet in 240 ul WEI-conditioned media containing 0.5% DMSO and corresponding concentration of compound. Incubate BMMC cells for 4-5 hours at 37° C. (5% CO2). After incubation, pellet cells (1000 RPM, 10 minutes) and collect 225 ul per well and place in −80° C. until ready to perform ELISAS. ELISAS are performed on appropriately diluted samples (determined empirically for each donor cell population so that the sample measurement falls within the standard curve) following the supplier's instructions.

[5] = system: bone marrow derived mast cells (BMMC); experiment: BMMC high cell density IgE activation: IL-6; format: cell-based, mouse; details: anti-IgE, second part of TABLE 1
Experimental: as §1, §2

[6] = system: bone marrow derived mast cells (BMMC); experiment: BMMC high cell density IgE activation: LTC4; format: cell-based, mouse; details: anti-IgE, second part of TABLE 1
Experimental: as §1, §2

[7] = system: bone marrow derived mast cells (BMMC); experiment: BMMC high cell density IgE activation: TNFalpha; format: cell-based, mouse; details: anti-IgE, second part of TABLE 1, read-out: BMMC anti-IgE TNF-alpha IC50
Experimental: as §1, §2

[8] = system: bone marrow derived mast cells (BMMC); experiment: BMMC high cell density IgE activation: hexosaminidase; format: cell-based, mouse; details: anti-IgE, second part of TABLE 1, read-out: BMMC anti-IgE hexos. IC50
Experimental: as §2
Hexosaminidase assay: In a solid black 96-well assay plate, add 50 uL hexosaminidase substrate (4-methylumbelliferyl-N-acetyl-(3-D-glucosaminide; 2 mM) to each well. Add 50 uL of BMMC cell supernatant (see above) to the hexoseaminidase substrate, place at 37° C. for 30 minutes and read the plate at 5, 10, 15, and 30 minutes on a spectrophotometer.

[9] = system: cultured human mast cells (CHMC); experiment: CHMC high cell density IgE activation: histamine; format: cell-based; details: anti-IgE activation
Experimental: as §1
(§3) After sensitizing, cells are counted, pelleted (1000 rpm, 5-10 minutes), and resuspended at 1-2×10^6 cells/ml in MT buffer. Add 100 ul of cell suspension to each well and 100 ul of compound dilutions. The final vehicle concentration is 0.5% DMSO. Incubate at 37° C. (5% CO2) for 1 hour. After 1 hour of compound treatment, stimulate cells with 6× anti-IgE. Mix wells with the cells and allow plates to incubate at 37° C. (5% CO2) for one hour. After 1 hour incubation, pellet cells (10 minutes, 1000 RPM) and collect 200 ul per well of the supernatant, being careful not to disturb pellet. Place the supernatant plate on ice. During the 7-hour step (see next) perform tryptase assay on supernatant that had been diluted 1:500. Resuspend cell pellet in 240 ul of CM media containing 0.5% DMSO and corresponding concentration of compound. Incubate CHMC cells for 7 hours at 37° C. (5% CO2). After incubation, pellet cells (1000 RPM, 10 minutes) and collect 225 ul per well and place in −80° C. until ready to perform ELISAS. ELISAS are performed on appropriately diluted samples (determined empirically for each donor cell population so that the sample measurement falls within the standard curve) following the supplier's instructions.

[10] = system: cultured human mast cells (CHMC); experiment: CHMC high cell density IgE activation: LTC4; format: cell-based; details: anti-IgE activation
Experimental: as §1, §3

[11] = system: cultured human mast cells (CHMC); experiment: CHMC high cell density IgE activation: hexos (hexosaminidase) release; format: cell-based; details: anti-IgE activation
Experimental: as §1, §3

[12] = system: cultured human mast cells (CHMC); experiment: CHMC high cell density IgE activation: tryptase; format: cell-based; details: anti-IgE activation
Experimental: as §3

[13] = system: cultured human mast cells (CHMC); experiment: CHMC high cell density IgE activation: TNFalpha; format: cell-based; details: anti-IgE activation; read-out: CHMC high density TNF-alpha
Experimental: as §1, §3

[14] = system: B-cell line BJAB; experiment: BJAB (B-cell) toxicity, light scatter; format: cell-based; details: read-out: Toxicity BJAB Light Scat.
Experimental: The B-cell line BJAB was cultured in log phase in RPMI1640+10% heat-inactivated fetal bovine serum, 1× L-glutamine, 1× penicillin, 1× […] and 1× beta-mercaptoethanol at 37° C., 5% CO2. First, BJABs were harvested, spun and resuspended in culture medium to a concentration of 7.7×10^5 cells/mL. 65 uL cells were mixed with 65 uL compound, in duplicate and in the presence of 0.1% DMSO in a V-bottomed 96-well tissue culture plate. Cells were incubated with compound at various dilutions at 37° C., 5% CO2. Toxicity was assessed by flow cytometric analysis of cellular light scatter.

[15] = system: Jurkat cells; experiment: Jurkat (T-cell) toxicity, light scatter; format: cell-based; details: 18-24 hr incubation; read-out: Toxicity Jurkat Light Scat.
Experimental: Dilute Jurkat cells to 2×10^5 cells/ml in complete RPMI (10% heat-inactivated fetal bovine serum) media and incubate at 37° C., 5% CO2 for 18 hours. Add 65 ul cells at 7.7×10^5 cells/ml to a 96-well V-bottom plate (TC-treated, Costar) containing 65 ul 2× compound (final vehicle concentration is 0.5% DMSO, 1.5% MeOH). Mix, incubate plates for 18-24 hr at 37° C., 5% CO2. Toxicity was assessed by flow cytometric analysis of cellular light scatter

[16] = system: cultured human mast cells (CHMC); experiment: CHMC low cell density IgE activation: LTC4 assay; format: cell-based; details: Homo sapiens, Mast cell, anti-IgE
Experimental: Pellet CHMC cells (980 rpm, 10 min) and resuspend in pre-warmed MT. Add 65 ul of cells to each 96-well plate. Depending on the degranulation activity for each particular CHMC donor, load 1000-1500 cells/well. Mix four times followed by a 1 hr incubation at 37° C. […] Stimulate cells by adding 25 ul of 6× anti-IgE solution to the appropriate plates. Add 25 ul MT to un-stimulated control wells. Mix twice following addition of the anti-IgE. Incubate at 37° C. for 30 minutes. […] Spin plates at 1000 rpm for 10 min to pellet cells. Transfer 25 ul of supernatant to a 96-well black bottom plate and add 100 ul of freshly diluted tryptase substrate solution to each well. Incubate plates at room temperature for 30 min.
Leukotriene C4 (LTC4) is also quantified using an ELISA kit on appropriately diluted supernatant samples (determined empirically for each donor cell population so that the sample measurement falls within the standard curve) following the supplier's instructions.

Structure (SMILES): Cc1cc(Nc2nc(Nc3cccc(OCC(=O)N4CCOCC4)c3)ncc2F)cc(Cl)c1O [R940265, N4-(3-Chloro-4-hydroxy-5-methylphenyl)-5-fluoro-N2-[3-(N-morpholino)carbonylmethyleneoxyphenyl]-2,4-pyrimidinediamine]
IC50 [4]: 0.306 µM
IC50 [5]: 0.486 µM
IC50 [6]: 1.21 µM
IC50 [2]: 0.239 µM
IC50 [7]: 1.13 µM
IC50 [3]: > 10 µM
IC50 [8]: 0.981 µM

Structure (SMILES): CC(C)Oc1ccc(Nc2nc(Nc3ccc4oc(C(=O)N5CCCC5)cc4c3)ncc2F)cc1 [R926703, 5-Fluoro-N4-(4-isopropoxyphenyl)-N2-[2-(N-pyrrolidino)carbonylbenzofuran-5-yl]-2,4-pyrimidinediamine]
IC50 [9]: > 2 µM
IC50 [10]: 0.724 µM
IC50 [11]: 1.51 µM
IC50 [2]: 0.525 µM
IC50 [3]: > 10 µM
IC50 [12]: 1.95 µM
IC50 [13]: > 2 µM

Structure (SMILES): CCOC(=O)COc1ccc(Nc2ncc(C#N)c(Nc3ccc(OCC(=O)OCC)cc3)n2)cc1 [R925775, N2,N4-Bis[4-(ethoxycarbonylmethyleneoxy)phenyl]-5-cyano-2,4-pyrimidinediamine]
IC50 [14]: > 10 µM
IC50 [15]: > 10 µM
IC50 [3]: > 10 µM

Structure (SMILES): Cc1cc(Nc2ncc(F)c(Nc3ccc4c(c3)NC(=O)C(F)(F)O4)n2)cc(Cl)c1O [R926971]
FcγRI-mediated degranulation (in words) [1]: inhibit FcγRI-mediated degranulation

Structure (SMILES): CNC(=O)COc1cccc(Nc2ncc(F)c(Nc3ccc4c(c3)NC(=O)C(F)(F)O4)n2)c1 [R921303, N4-[(2,2-Difluoro-4H-benzo[1,4]oxazin-3-one)-6-yl]-5-fluoro-N2-[3-(methylaminocarbonylmethyleneoxy)phenyl]-2,4-pyrimidinediamine]
FcγRI-mediated degranulation (in words) [1]: inhibit FcγRI-mediated degranulation

Structure (SMILES): Fc1cnc(Nc2cccc(OCCN3CCOCC3)c2)nc1Nc1ccc2c(c1)OCCO2 [R926486, N4-(3,4-Ethylenedioxyphenyl)-5-fluoro-N2-[3-[2-(N-morpholino)ethyleneoxy]phenyl]-2,4-pyrimidinediamine]
IC50 [2]: 0.647 µM
IC50 [3]: 7.4 µM
IC50 [13]: 0.455 µM

Structure (SMILES): COC(=O)c1cc2cc(Nc3ncc(F)c(Nc4ccc5[nH]c(C(=O)OC)cc5c4)n3)ccc2[nH]1 [R926593]
IC50 [16]: 0.495 µM
IC50 ([2]; Homo sapiens, Mast cell): 0.68 µM
IC50 ([3]; Homo sapiens, Mast cell): 8.3 µM

Structure (SMILES): CNC(=O)COc1cccc(Nc2nc(Nc3cccc(O)c3)ncc2C(F)(F)F)c1 [R926741, N2-(3-Hydroxyphenyl)-5-trifluoromethyl-N4-[3-(N-methylamino)carbonylmethyleneoxyphenyl]-2,4-pyrimidinediamine]
IC50 [4]: 1.02 µM
IC50 [5]: 0.537 µM
IC50 [6]: > 10 µM
IC50 [2]: 2.91 µM
IC50 [7]: 0.772 µM
IC50 [3]: > 10 µM
IC50 [8]: 0.961 µM

Structure (SMILES): CNC(=O)COc1cccc(Nc2ncc(F)c(Nc3ccc(OC(F)(F)F)c(Cl)c3)n2)c1 [R920410, N4-(3-Chloro-4-trifluoromethoxyphenyl)-5-fluoro-N2-[3-(N-methylamino)carbonylmethyleneoxyphenyl]-2,4-pyrimidinediamine]
FcγRI-mediated degranulation (in words) [1]: inhibit FcγRI-mediated degranulation
IC50 [3]: > 10 µM

Other lines, results leading:

FcγRI-mediated degranulation (in words) [1]: inhibit FcγRI-mediated degranulation
IC50 [2]: 0.101 µM
IC50 [3]: > 10 µM
Structure (SMILES): O=C1Nc2cc(Nc3ncc(F)c(Nc4ccc5c(c4)NC(=O)C(F)(F)O5)n3)ccc2OC1(F)F [R940352, N2,N4-[(2,2-Difluoro-4H-benzo[1,4]oxazin-3-one)-6-yl]-5-fluoro-2,4-pyrimidinediamine]

IC50 [4]: 0.073 µM
IC50 [5]: < 0.056 µM
IC50 [6]: 0.332 µM
IC50 [2]: 0.211 µM
IC50 [7]: 0.251 µM
IC50 [3]: > 10 µM
IC50 [8]: 0.136 µM
Structure (SMILES): CNC(=O)COc1cccc(Nc2ncc(F)c(Nc3cccc(C(C)(C)C)c3)n2)c1 [R940276, N4-(3-tert-Butylphenyl)-N2-[3-(N-methylamino)carbonylmethyleneoxyphenyl]-5-fluoro-2,4-pyrimidinediamine]

IC50 [9]: > 10 µM
IC50 [10]: 5.98 µM
IC50 [11]: 8.15 µM
IC50 [2]: > 10 µM
IC50 [3]: > 10 µM
IC50 [12]: 8.87 µM
Structure (SMILES): Fc1cnc(Nc2ccc(OCc3nnn[nH]3)cc2)nc1Nc1ccc(OCc2nnn[nH]2)cc1 [R945033, N2,N4-Bis[4-(1H-1,2,3,4-tetrazol-5-yl)methyleneoxyphenyl]-5-fluoro-2,4-pyrimidinediamine]

IC50 [9]: 0.547 µM
IC50 [11]: 1.28 µM
IC50 [3]: 8.8 µM
IC50 [12]: 1.75 µM
IC50 [13]: > 2 µM
Structure (SMILES): Cc1nc(COc2cccc(Nc3ncc(F)c(Nc4ccc5c(c4)OCCO5)n3)c2)no1 [R945128, N4-(3,4-Ethylenedioxyphenyl)-5-fluoro-N2-[3-(5-methyl-1,2,4-oxadiazol-3-yl)methyleneoxyphenyl]-2,4-pyrimidinediamine]

FcγRI-mediated degranulation (in words) [1]: inhibit FcγRI-mediated degranulation
IC50 [2]: 0.063 µM
Structure (SMILES): CNC(=O)COc1cccc(Nc2ncc(F)c(Nc3ccc4c(n3)NC(=O)C(C)(C)O4)n2)c1 [R940347, N4-[(2,2-Dimethyl-4H-5-pyrido[1,4]oxazin-3-one)-6-yl]-5-fluoro-N2-[3-(methylaminocarbonylmethyleneoxy)phenyl]-2,4-pyrimidinediamine]
